Reference: patent US8093430B2, “Methods of inhibiting ethylene responses in plants using cyclopropene amine compounds” (North Carolina State University, priority 2007, dated 2012)
Read-outs that look alike come from different tables or passages of the source.

Key:
[1] = cited from earlier work
bananas [2] = experiment: Time of protection of bananas against ethylene; assay type: in vivo, Musa paradisiaca L
Experimental: Untreated mature green bananas (Musa paradisiaca L) from Costa Rica which were ready for market were obtained from the local Farmers Market and were kept at 14.5° C. until use. Bananas were used within 24 hours of arrival. Experiments were conducted at approximately 22-23° C. No damaged fruit were used in the experiments. Bananas were treated to an amount of compound believed to saturate the receptor sites (10 times the minimum amount for protection). The bananas were exposed for 24 hours then vented. They were kept on a laboratory bench and each day a sample was exposed to ethylene. The day the bananas were treated with ethylene and the day the bananas turned yellow and became soft were recorded. Generally, this observation occurred about 3 days after the ethylene treatment day. The treatment day the bananas first ripened was considered to be the time of protection.

bananas [3] = experiment: Minimum amount of cyclopropene as a gas required to protect bananas from ethylene; assay type: in vivo, Musa paradisiaca L; conditions: for minimum concentration required for protection of bananas: 24 hour exposure, compound as a gas; for Minimum Concentration: amount of compound as a gas that would protect bananas by a 24 hour exposure; for minimum protection value: as a gas, restated with FIG. 3
Experimental: Untreated mature green bananas (Musa paradisiaca L) from Costa Rica which were ready for market were obtained from the local Farmers Market and were kept at 14.5° C. until use. Bananas were used within 24 hours of arrival. Experiments were conducted at approximately 22-23° C. No damaged fruit were used in the experiments. […] The jars were then vented and ethylene was injected and allowed to stand for a minimum of 15 hours and then allowed to stand at 23° C. until ethylene responses developed. For gaseous phase treatment, the compound is applied to bananas by pipetting solution onto filter paper. Filter paper is used to increase surface area in a 3 L jar. The jar is sealed for 24 hours to give enough time to diffuse through plant tissue to the ethylene binding sites. 333 ul/L of ethylene gas is added to the jars. The jars are then resealed for 15 hours. This allows for maximal exposure to ethylene to measure effectiveness of the compounds. Firmness was recorded over a number of days. Disappearance of chlorophyll was determined by extracting chlorophyll from banana peels. Absorbance was measured in a spectrometer. The minimum amount of cyclopropene necessary to protect bananas from ethylene was determined after the bananas had been exposed to the compound for 24 hours. Following this time, the fruits were vented for 10 minutes and then exposed to 333 ? l^-I of ethylene gas treatment. This has been the procedure for most other studies involving cyclopropene compounds and bananas. This time was used so that a reasonable comparison could be made with previous work ([…]. et al. 1996 a; 1996b; 1999; 2001; 2003). (See […]., et al., Effect of 1-methylcyclopropene, and methylenecyclopropene on ethylene binding and ethylene action in cut carnations, Plant Growth Reg., 18, 79-86, (1996a); […]., et al., The effect of chemical structure on the antagonism by cyclopropenes of ethylene responses in banana, Plant Growth Reg., 33, 107-110 (2001); […]., et al., 1-Substituted cyclopropenes: Effective blocking agents for ethylene action in plants, Plant Growth Reg. 40, 221-228 (2003)).

banana peel = experiment: Protection of chlorophyll in banana peel by compound applied as salt (swab) or gas, then ethylene; assay type: in vivo, Musa paradisiaca L; conditions: for difference between the highest and lowest chlorophyll value of the concentration series: FIG. 3, acetate salts, series 1 to 2.5 times starting at 3 times the gas minimum, 24 hour exposure; for chlorophyll level in banana peels against concentration: FIG. 6A, treated using acetic acid
Experimental: Untreated mature green bananas (Musa paradisiaca L) from Costa Rica which were ready for market were obtained from the local Farmers Market and were kept at 14.5° C. until use. Bananas were used within 24 hours of arrival. Experiments were conducted at approximately 22-23° C. No damaged fruit were used in the experiments. […] The jars were then vented and ethylene was injected and allowed to stand for a minimum of 15 hours and then allowed to stand at 23° C. until ethylene responses developed. When the effect of the respective salts of the cyclopropenes were assayed, the salt was mixed with the desired amount of water containing Tween 20 as a wetting agent and the acid. Usually 200 μl of water, 20 μl of Tween 20 and 100 μl of 0.1 M acid and the compound dissolved in ether were used. These salts were applied to the banana. The peels were swabbed to spread the mixture and increase the exposed surface area. The bananas were placed in an unsealed 3-liter jar and allowed to stand 24 hours. In the case of the carbonate salt, the compound was exposed to carbon dioxide in water long enough for the salt to form. In this case, the carbonate salt was formed by mixing the compound dissolved in water with CO2. The concentration of CO2 in water at 1 atmosphere and 25° C. is reported to be 0.0338 M (Daniels and Alberty 1955) (See Daniels, F, et al., Physical Chemistry, John Wiley and Sons New York, 200 (1955). […] (See Cotton, et al., Advanced Inorganic Chemistry John Wiley and Sons. New York, 152 (1999). At the end of 24 hours, ethylene was injected and the jars were sealed. After 15 hours exposure, the bananas were removed and observed for several days for the effect of ethylene. An untreated check banana and a similar untreated banana treated with ethylene only were included in each experiment for comparison. For gaseous phase treatment, the compound is applied to bananas by pipetting solution onto filter paper. Filter paper is used to increase surface area in a 3 L jar. The jar is sealed for 24 hours to give enough time to diffuse through plant tissue to the ethylene binding sites. 333 ul/L of ethylene gas is added to the jars. The jars are then resealed for 15 hours. This allows for maximal exposure to ethylene to measure effectiveness of the compounds. Firmness was recorded over a number of days. Disappearance of chlorophyll was determined by extracting chlorophyll from banana peels. Absorbance was measured in a spectrometer. For aqueous phase (salts) treatment, compounds were alternatively tested by mixing the solutions in acid and a detergent. The detergent, Tween 20, was used as a wetting agent. Solutions were then applied at various concentrations to the banana with a cotton swab. Bananas were then sealed in a jar and treated in the same manner as with the gas compound procedures described above. Chlorophyll was determined by the method of Arnon (Arnon, D I (1949) Copper content in isolated chloroplasts. Polyphenoloxidase in Beta vulgaris. Plant Physiology 24:1-15) or by using a reflective chlorophyll meter (Field Scout CM 1000 Spectronic Technologies Inc.). To extract chlorophyll, a measured area of peel was cut from representative areas of the peel and placed in boiling water for 3 minutes. The samples were then removed and blended with acetone. After standing overnight in the dark, they were filtered then concentrated in a hood and chlorophyll determined by the method of Arnon (1949) according to the procedures outlined by Holden (1965). Banana peel samples were cut and mixed with acetone to extract chlorophyll. Samples were made in an ether solution and absorbance measured at 663 nm.

bananas [4] = experiment: Stability of the compound after 1 hour incubation with acids or salts at different pH, read by banana chlorophyll; assay type: physicochemical, Musa paradisiaca L; conditions: for Chlorophyll (% of control): readings at 7 days
Experimental: Chlorophyll was determined by the method of Arnon (Arnon, D I (1949) Copper content in isolated chloroplasts. Polyphenoloxidase in Beta vulgaris. Plant Physiology 24:1-15) or by using a reflective chlorophyll meter (Field Scout CM 1000 Spectronic Technologies Inc.). To extract chlorophyll, a measured area of peel was cut from representative areas of the peel and placed in boiling water for 3 minutes. The samples were then removed and blended with acetone. After standing overnight in the dark, they were filtered then concentrated in a hood and chlorophyll determined by the method of Arnon (1949) according to the procedures outlined by Holden (1965).
However, these compounds are thought to be unstable under very acidic conditions. Liao et al. in some synthetic procedures lower the pH to 1-3.

[5] = 24 hour exposure at 10 times the minimum amount, daily ethylene challenge

| Molecule | protection time (bananas [2]) | protection time (bananas [2]; [5]) | minimum concentration required for protection of bananas (bananas [3]) | Minimum Concentration (bananas [3]) | also measured |
| --- | --- | --- | --- | --- | --- |
| O=C(O)O [carbonic acid] |  |  |  |  | pKa ([1]; corrected for the equilibrium (Cotton et al. 1999)): 3.58; pKa ([1]; usually published value): 6.38 |
| O=C=O [CO2, carbon dioxide] |  |  |  |  | concentration in water ([1]; 1 atmosphere and 25° C. (Daniels and Alberty 1955)): 0.0338 M |
| CCN(CC)CC1=CC1 [N,N--Diethyl (1-Cyclopropenylmethyl)amine] | 32 days | 32 days | 59 nl l^−I | 59 nl/l |  |
| C1=C(CNCC2=CC2)C1 | 33 days | 33 days | 5.3 nl l^−I | 5.7 nl/l |  |
| N-(1-methylcyclopropene)-aniline | 32 days | 32 days | 248 nl l^−I | 248 nl/l |  |
| CN(C)CC1=CC1 [N,N--Dimethyl (1-Cyclopropenylmethyl)amine] | 34 days | 34 days | 73 nl l^−I | 73 nl/l | difference between the highest and lowest chlorophyll value of the concentration series (banana peel): 30.9 % of the control; chlorophyll level in banana peels against concentration (banana peel): ascending concentrations to have increasingly higher chlorophyll levels; minimum protection value (bananas [3]): 73 nl l^−1 |
| CCCCN(CCCC)CC1=CC1 [N,N--Dibutyl (1-Cyclopropenylmethyl)amine] | 33 days | 33 days | 184 nl l^−I | 184 nl/l | Chlorophyll (% of control) (bananas [4]; Gas control, bananas exposed as a gas 24 hours then ethylene 15 hours): 100 % of control; inactivation by acids or salts (bananas [4]; different pH values down to pH 1.5 for 1 hour, re-isolated and used in the usual treatments): little or no inactivation occurred; Chlorophyll (% of control) (bananas [4]; incubated 1 hour in H2O, neutralized, ether extract applied as a gas 24 hours, ethylene 15 hours): 98 % of control; Chlorophyll (% of control) (bananas [4]; incubated 1 hour in phosphoric acid (.1M, pH 1.5)): 98 % of control; Chlorophyll (% of control) (bananas [4]; incubated 1 hour in sodium acetate (0.1M, pH 4.75)): 100 % of control; Chlorophyll (% of control) (bananas [4]; incubated 1 hour in sodium formate (0.1M, pH 3.0)): 100 % of control; rapidity of receptor inactivation relative to the dimethyl compound (banana peel; FIG. 3, 24 hour exposure): 1.55 ×; difference between the highest and lowest chlorophyll value of the concentration series (banana peel): 48 % of the control; protection of bananas compared with the dimethyl compound (banana peel; FIG. 5, aqueous phase, swabbed onto the top half, four days after exposure to ethylene gas): less protection; chlorophyll level in banana peels against concentration (banana peel): ascending concentrations to have increasing levels of chlorophyll; minimum protection value (bananas [3]): 184 nl l^−1 |
